Data on 24 molecules can be found in US20220338471A1, “HONEY BEE-SAFE ACARICIDAL COMPOUNDS” (Kansas State University Research Foundation, priority 2019, published 2022).

Where “and” joins values, the source holds several entries; their conditions need not be identical. Identical values can stand only once. Like-named read-outs stand apart in the source and are kept apart here. Square brackets hold non-standard residues; d marks the D form. Ends that are not written are not given here. Peptide text beside a SMILES is read from it. Oic = O=C(O)[C@@H]1C[C@@H]2CCCC[C@@H]2N1; Phe(4-Cl) = N[C@@H](Cc1ccc(Cl)cc1)C(=O)O; Phe(4-F) = N[C@@H](Cc1ccc(F)cc1)C(=O)O; Hyp = O=C(O)[C@@H]1C[C@@H](O)CN1; β3hF = N[C@H](CC(=O)O)Cc1ccccc1; β3hL = CC(C)C[C@H](N)CC(=O)O; β3hP = O=C(O)C[C@@H]1CCCN1; Aib = CC(C)(N)C(=O)O

Assay [1] addresses T1, varroa mite proctolin receptor (VdProctR) (Varroa destructor, UniProt A0A7T1TE40).
T1 sequence (A0A7T1TE40 1-530): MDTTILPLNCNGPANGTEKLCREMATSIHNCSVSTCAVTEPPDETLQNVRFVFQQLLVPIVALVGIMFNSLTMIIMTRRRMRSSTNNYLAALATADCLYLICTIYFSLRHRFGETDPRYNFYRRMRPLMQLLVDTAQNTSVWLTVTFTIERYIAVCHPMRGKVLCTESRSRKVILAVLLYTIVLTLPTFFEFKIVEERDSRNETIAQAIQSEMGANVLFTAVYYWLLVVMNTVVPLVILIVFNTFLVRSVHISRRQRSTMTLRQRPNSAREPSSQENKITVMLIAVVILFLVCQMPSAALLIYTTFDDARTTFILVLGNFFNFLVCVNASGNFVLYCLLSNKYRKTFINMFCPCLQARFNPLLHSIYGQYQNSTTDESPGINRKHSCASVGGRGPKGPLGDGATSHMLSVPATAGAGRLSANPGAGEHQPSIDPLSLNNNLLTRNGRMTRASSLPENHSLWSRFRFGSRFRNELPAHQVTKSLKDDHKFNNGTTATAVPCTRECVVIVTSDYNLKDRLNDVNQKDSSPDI
In words: Receptor activity assay: luminescence in cells transiently transfected with varroa mite proctolin receptor. Particulars: for EC50: varroa mite proctolin receptor; for Activity at high concentrations compared with proctolin: at 1 μM and 10 μM; for Factor by which potency exceeds that of the corresponding analog with only a single replacement at Y2: 2338 vs 2333, 2337 vs 2329. The class given is cell-based. Here is the method:
Approximately thirty hours after transfection, the cells were collected and preincubated with coelenterazine h for the functional assay. The ligands in serial dilutions were loaded into 96-well opaque plates. Cells treated with coelenterazine h were injected into each well on an Orion microplate luminometer (Berthold) luminescent plate reader. The luminescence was measured for 20 seconds immediately after the cell injections. Data analyses were performed to determine the accumulated luminescence value for 20 seconds after extraction of blank-well luminescence. A dose-response curve was generated and the EC50 (50% effective concentration) was calculated in Origin 7 (OriginLab).

Assay [2] relates to Varroa mites. Put plainly: Injection of compound into the body cavity of varroa mites (excretion). The assay is classed as in vivo, Varroa destructor. The settings on record: ~5 nL of 200 μM. From the text: Micro-glass electrodes were used for the injections using the pressure injection system (Dagan PMI-200). All injected animals were within 5 hr after the collections as described above.

[3] abbreviates: EC50 (nM), second set of peptidomimetics.
Where [4] appears, read: second set, EC50 relative to proctolin (14.19 nM).
Where [5] appears, read: first set of experiments, EC50 relative to proctolin (0.22 nM).
Setting [6] is: first set of experiments, read-out: EC50.
The mark [7] stands for this setting: EC50 (nM), first set of experiments.

The EC50 is the concentration that produces a half-maximal response. In assay [1] (setting [3]), `CC(=O)N[C@@H](CCCNC(=N)N)C(=O)N[C@@H](Cc1ccc(F)cc1)C(=O)N[C@@H](CC(C)C)C(=O)N1C[C@H](O)C[C@H]1C(=O)N[C@H](C(=O)O)[C@@H](C)O` [Ac-2441, Ac-R[Phe(4-F)]L[HyP]T] (Ac-R[Phe(4-F)]L[Hyp]T-OH) displayed an EC50 of 471 nM. Besides, in assay [1] (setting [4]), the Fold change came out at 33.20.
Taken in the same sequence, the figures for `CC(=O)N[C@@H](CCCNC(=N)N)C(=O)N[C@@H](Cc1ccc(Cl)cc1)C(=O)N[C@@H](CC(C)C)C(=O)N1C[C@H](O)C[C@H]1C(=O)N[C@H](C(=O)O)[C@@H](C)O` [Ac-2443, Ac-R[Phe(4-Cl)]L[HyP]T] (Ac-R[Phe(4-Cl)]L[Hyp]T-OH) were 108 nM and 7.64.
As to `CC(C)C[C@H](NC(=O)[C@H](Cc1ccc(O)cc1)NC(=O)[C@@H](N)CCCNC(=N)N)C(=O)N1CCC[C@H]1C(=O)N[C@@H](C(=O)O)[C@H](C)O` [Analog 2326, RYLP[dT]] (H-RYLP[dT]-OH; N-terminus assumed), the Fold change in assay [1] (setting [5]) was determined as 13600.00. In assay [1] (setting [6]), the EC50 was 2990 nM. For the same molecule, the “Agonist activity / potency on the Varroa mite proctolin receptor, in words” value in assay [1] (in words) is “inactive agonist”.
On to `CC(C)C[C@H](NC(=O)[C@H](Cc1ccc(O)cc1)NC(=O)[C@@H](N)CCCNC(=N)N)C(=O)N1CCC[C@@H]1C(=O)N[C@H](C(=O)O)[C@@H](C)O` [Analog 2327, RYL[dP]T] (H-RYL[dP]T-OH), for which, in assay [1] (setting [5]), the Fold change was found to be 2496.82. In addition, in assay [1] (setting [6]), the EC50 is 549 nM.
Taken in the same sequence, the figures for `CC(C)C[C@@H](NC(=O)[C@H](Cc1ccc(O)cc1)NC(=O)[C@@H](N)CCCNC(=N)N)C(=O)N1CCC[C@H]1C(=O)N[C@H](C(=O)O)[C@@H](C)O` [Analog 2328, RY[dL]PT] (H-RY[dL]PT-OH) were 413.36 and 90.9 nM.
In turn, `CC(C)C[C@H](NC(=O)[C@@H](Cc1ccc(O)cc1)NC(=O)[C@@H](N)CCCNC(=N)N)C(=O)N1CCC[C@H]1C(=O)N[C@H](C(=O)O)[C@@H](C)O` [Analog 2329, R[dY]LPT] (H-R[dY]LPT-OH) registered a Fold change in assay [1] (setting [5]) of 672.27. The EC50 in assay [1] (setting [6]) is 148 nM.
With `CC(C)C[C@H](NC(=O)[C@H](Cc1ccc(O)cc1)NC(=O)[C@H](N)CCCNC(=N)N)C(=O)N1CCC[C@H]1C(=O)N[C@H](C(=O)O)[C@@H](C)O` [Analog 2330, [dR]YLPT] (H-[dR]YLPT-OH; N-terminus assumed), the “Activity at high concentrations compared with proctolin” value in assay [1] is “higher than that of proctolin”. In assay [1] (setting [5]), this molecule returned a Fold change of 25.55. Besides, the EC50 in assay [1] (setting [6]) was 5.6 nM and 5.62 nM.
With `CC(C)C[C@H](NC(=O)[C@H](Cc1ccc(O)cc1)NC(=O)[C@@H](N)CCCNC(=N)N)C(=O)N1CCC[C@H]1CC(=O)N[C@H](C(=O)O)[C@@H](C)O` [Analog 2331, RYL[β3P]T] (H-RYL[β3hP]T-OH; N-terminus assumed), the “Activity at high concentrations compared with proctolin” value in assay [1] is “higher than that of proctolin”. This molecule also had a Fold change in assay [1] (setting [5]) of 20.00. In addition, the EC50 in assay [1] (setting [6]) turned out to be 4.4 nM.
Molecule `CC(C)C[C@@H](CC(=O)N1CCC[C@H]1C(=O)N[C@H](C(=O)O)[C@@H](C)O)NC(=O)[C@H](Cc1ccc(O)cc1)NC(=O)[C@@H](N)CCCNC(=N)N` [Analog 2332, RY[β3L]PT] (H-RY[β3hL]PT-OH) registered a Fold change in assay [1] (setting [5]) of 927.27. Besides, the EC50 in assay [1] (setting [6]) was 204 nM.
Taken in the same sequence, the figures for `CC(C)C[C@H](NC(=O)C[C@H](Cc1ccccc1)NC(=O)[C@@H](N)CCCNC(=N)N)C(=O)N1CCC[C@H]1C(=O)N[C@H](C(=O)O)[C@@H](C)O` [Analog 2333, R[β3F]LPT] (H-R[β3hF]LPT-OH) were 991.82 and 218 nM.
Turning to `CC(C)C[C@H](NC(=O)[C@H](Cc1ccc(O)cc1)NC(=O)[C@@H](N)CCCNC(=N)N)C(=O)N1C[C@H](O)C[C@H]1C(=O)N[C@H](C(=O)O)[C@@H](C)O` [Analog 2334, RYL[HyP]T] (H-RYL[Hyp]T-OH; N-terminus assumed), the “Activity at high concentrations compared with proctolin” value in assay [1] is on record as “higher than that of proctolin”. For the same molecule, the Fold change in assay [1] (setting [5]) is 2.5 and 2.45. In addition, the EC50 in assay [1] (setting [6]) amounted to 0.54 nM. In addition, in assay [1] (in words), the “Agonist activity / potency on the Varroa mite proctolin receptor, in words” value was “strong agonists”. Further, the “Individuals with immediate excretion of a drop of fecal material through the anus” value in assay [2] is 3/4.
In turn, `CC(C)C[C@H](NC(=O)[C@H](Cc1ccc(O)cc1)NC(=O)[C@@H](N)CCCNC(=N)N)C(=O)NC(C)(C)C(=O)N[C@H](C(=O)O)[C@@H](C)O` [Analog 2335, RYL[Aib]T] (H-RYL[Aib]T-OH) had a Fold change in assay [1] (setting [5]) of 10.09. Also, in assay [1] (setting [6]), the EC50 was 2.2 nM and 2.22 nM.
For `CC(C)C[C@H](NC(=O)[C@@H](Cc1ccc(O)cc1)NC(=O)[C@@H](N)CCCNC(=N)N)C(=O)N1C[C@H](O)C[C@H]1C(=O)N[C@H](C(=O)O)[C@@H](C)O` [Analog 2337, R[dY]L[HyP]T] (H-R[dY]L[Hyp]T-OH; N-terminus assumed), in assay [1], the “Factor by which potency exceeds that of the corresponding analog with only a single replacement at Y2” value is 4. For the same molecule, the EC50 in assay [1] (setting [7]) was 36 nM and 35.9 nM. For the same molecule, in assay [1] (setting [5]), the Fold change came out at 163.00. Also, the “Efficacy (maximal response)” value in assay [1] (in words) is recorded as “full efficacy”.
`CC(C)C[C@H](NC(=O)C[C@H](Cc1ccccc1)NC(=O)[C@@H](N)CCCNC(=N)N)C(=O)N1C[C@H](O)C[C@H]1C(=O)N[C@H](C(=O)O)[C@@H](C)O` [Analog 2338, R[β3F]L[HyP]T] (H-R[β3hF]L[Hyp]T-OH): the “Factor by which potency exceeds that of the corresponding analog with only a single replacement at Y2” value in assay [1] is on record as 8. Also, the concentration giving a half-maximal response (EC50) in assay [1] (setting [7]) was 26 nM and 26.3 nM. In addition, the Fold change in assay [1] (setting [5]) stood at 119.59. In assay [1] (in words), the “Efficacy (maximal response)” value is “full efficacy”.
In the case of `CC(C)C[C@H](NC(=O)[C@@H](Cc1ccc(O)cc1)NC(=O)[C@@H](N)CCCNC(=N)N)C(=O)N1[C@H](C(=O)N[C@H](C(=O)O)[C@@H](C)O)C[C@@H]2CCCC[C@@H]21` [Analog 2340, R[dY]L[Oic]T] (H-R[dY]L[Oic]T-OH; N-terminus assumed), the EC50 in assay [1] (setting [7]) was 278 nM. For the same molecule, the Fold change in assay [1] (setting [5]) came out at 1262.27. The “Potency compared with 2337 and 2338” value in assay [1] (in words) is “less potent than 2337 and 2338 by approximately an order of magnitude”.
Take `CC(C)C[C@H](NC(=O)[C@H](Cc1ccc(F)cc1)NC(=O)[C@@H](N)CCCNC(=N)N)C(=O)N1CCC[C@H]1C(=O)N[C@H](C(=O)O)[C@@H](C)O` [Analog 2438, R[Phe(4-F)]LPT] (H-R[Phe(4-F)]LPT-OH): in assay [1] (setting [3]), it took 7.55 nM to reach a half-maximal effect (EC50). Also, the Fold change in assay [1] (setting [4]) is given as 0.53.
Taken in the same sequence, the figures for `CC(C)C[C@H](NC(=O)[C@H](Cc1ccc(Cl)cc1)NC(=O)[C@@H](N)CCCNC(=N)N)C(=O)N1CCC[C@H]1C(=O)N[C@H](C(=O)O)[C@@H](C)O` [Analog 2440, R[Phe(4-Cl)]LPT] (H-R[Phe(4-Cl)]LPT-OH) were 7.03 nM and 0.50.
Turning to `CC(C)C[C@H](NC(=O)[C@H](Cc1ccc(F)cc1)NC(=O)[C@@H](N)CCCNC(=N)N)C(=O)N1C[C@H](O)C[C@H]1C(=O)N[C@H](C(=O)O)[C@@H](C)O` [Analog 2441, R[Phe(4-F)]L[HyP]T] (H-R[Phe(4-F)]L[Hyp]T-OH; N-terminus and C-terminus assumed), in assay [1] (setting [3]), the midpoint of the response, the EC50, lay at 9.93 nM. Besides, the “Activity compared with proctolin, in words” value in assay [1] (second set, Y2 phenylalanine variants) was “higher activity than proctolin”. Also, in assay [1] (setting [4]), the Fold change is given as 0.70.
In turn, GRYLPT [Analog G1, GRYLPT] displayed an EC50 in assay [1] (setting [7]) of 30.9 nM. This molecule gave a Fold change in assay [1] (setting [5]) of 140.36.
On the same counts, the results for RGYLPT [Analog G2, RGYLPT] are 15900 nM and 72095.45.
On the same counts, the results for RYGLPT [Analog G3, RYGLPT] are 31400 nM and 142868.18.
On the same counts, the results for RYLGPT [Analog G4, RYLGPT] are 1090 nM and 4954.55.
In turn, RYLPGT [Analog G5, RYLPGT] came in with an EC50 in assay [1] (setting [7]) of 1160 nM. In addition, the Fold change in assay [1] (setting [5]) came to 5259.09.
Take RYLPTG [Analog G6, RYLPTG]: in assay [1] (setting [7]), it took 478 nM to reach a half-maximal effect (EC50). Moreover, the “Activity at high concentrations compared with proctolin” value in assay [1] was “higher than that of proctolin”. In assay [1] (setting [5]), this molecule returned a Fold change of 2175.00.
